In article PMC10417336 (Animals : an Open Access Journal from MDPI, 2023):
Values joined by “and” are separate entries in the source; they are usually repeats but may differ in a detail not shown here. Identical values can stand only once. Like-named read-outs stand apart in the source and are kept apart here.

What was measured:
[1] = test system: lambari (Astyanax bimaculatus); details: for T1/2, half-life time: t1/2=ln2/Ke
Experimental: The feed used in the experiment was purchased commercially and contained 45% protein (GuabiTech, Campinas, SP, Brazil). The amount of ^14C SDZ (Sigma-Aldrich; Saint Louis, MO, USA, Hen- 5154X Riedel) used in the experiment was the one that gave the lowest reading signal in the liquid scintillation spectrometer. Thus, the amount of feed per fish was the equivalent of 1% of body weight, 12 mg·day^−1, totaling 3528 mg of feed contaminated with 5540.38 Bq of radioactive product. The feed was homogenized after the application of the ^14C SDZ to ensure that all of the drug was evenly distributed in the feed. For confirmation, seven 50 mg samples of contaminated feed were used for the liquid scintillation spectrometer reading.
The bioaccumulation and depletion study using lambari was conducted to evaluate how the elimination of the SDZ molecule works after treatment. The experiment was performed based on the guidelines of the Organization for Economic Cooperation and Development standard no. 305 [17] and VICH-FDA [18], with adaptations for the use of radiolabeled molecules.
The lambari fingerlings were acquired from a commercial fish farm, without distinction between male and female. A total of 100 healthy fish were placed in a tank with 200 L of (chlorine-free) water. The acclimatization took place over 15 days, during which the fish were fed three times daily with commercial fish food. The water temperature was maintained at 25 °C ± 1 °C and pH 7. Feeding of the fry was stopped 24 h before the experiment.
The tests were divided into two stages, seven days of exposure and seven days of depuration. After the acclimatization process, 84 fish (approximately 5 cm long and weighing approximately 1.0 to 1.4 g) were used in the experiment. The experiment was conducted in 8 L stainless steel tanks with three replicates and two controls, with 14 fish placed in each tank. The water temperature was maintained at 25 °C ± 1 °C, pH 7, under permanent aeration, with a 12 h photoperiod. Water temperature and pH were analyzed daily.
The exposure phase of the fish to the antibiotic lasted 7 consecutive days, during which the medicated feed was offered three times a day. Control fish were fed uncontaminated feed. For the depletion phase, the remaining lambaris were transferred to clean tanks with 4 L of water and fed uncontaminated feed three times a day. It is worth noting that one fish was randomly selected and sampled during the exposure (days 1, 2, 3, 4, 5, 6, and 7) and depletion (8, 9, 10, 11, 12, 13, and 14) periods of each tank; the selected lambari was euthanized with a 0.2 mg.mL^−1 benzocaine immersion bath and frozen for later analysis.
Fish samples were burned in the Oxidizer OX500 (RJ—Harvey Instrument Corporation, Buffalo, NY, USA) in an oxygen-rich atmosphere, where 10 mL of scintillation liquid (permafluor) was used per sample. Measurement was by liquid scintillation counting (LSC) with a Tri-Carb 2910 TR LSA counter (Perkin Elmer, Waltham, MA, USA).
On day 7 (the last day of bioaccumulation) and day 14 (the last day of depletion), the aquarium water was filtered through filter paper (Whatman 42) to collect background material (metabolic excrement). The analyses of the excreta were conducted in the same way as the procedures described for fish. In addition, water samples from each aquarium were sampled in triplicate at the exposure phase (beginning and end) to determine the radiolabeled molecule, using liquid scintillation counters (LSC) with a Tri-Carb 2910 TR LSA counter (Perkin Elmer).

[2] = Table 1, source not given; cited from earlier work
[3] = test system: rainbow trout (Oncorhynchus mykiss); details: cited from earlier work
Danio rerio = details: listed as SDZ; cited from earlier work
[4] = test system: sea cucumbers (Apostichopus japonicus); details: cited from earlier work
[5] = test system: common carp (Cyprinus carpio); details: cited from earlier work

Nc1ccc(S(=O)(=O)Nc2ncccn2)cc1 [Sulfadiazine, 4-Amino-N-(2-pyrimidinyl)benzenesulfonamide]
accumulated SDZ eliminated by the organisms ([1]; after two days of the depletion phase (7–9 days)): 93.12% | ke, elimination constant ([1]; column Bioaccumulation, model fit): 0.3956 day⁻¹ | A, pre-exponential term ([1]; column Depletion, model fit): 186.2 ng/g | ku, absorption constant ([1]; column Depletion, model fit): 0.6155 mL/g/day | T1/2, half-life time ([1]; column Depletion, listed as 14C-sulfadiazine): 27.02 h | T1/2, half-life time ([1]; column Depletion, listed as SDZ): 27.1 h | maximum (peak) concentration of SDZ in fish ([1]; day 7 of exposure, medicated feed 2.5 mg·g^−1 three times a day, listed as SDZ): 91.7 ng/g and 91.72 ng/g | concentration of SDZ in fish after depletion phase ([1]; day 13, end of experiment): 0.83 ng/g | accumulated 14C-SDZ eliminated by the fish ([1]; depletion phase period (7–13 days)): 93.12% | concentration of SDZ in excreta in the depletion period ([1]; depletion, abstract): 5.96 ng/g | concentration of SDZ in fish relative to the MRL ([1]; during exposure (bioaccumulation) and elimination (depletion) phases): < 100 ng/g | concentration of SDZ in excreta (sediment), elimination (depletion) phase ([1]; elimination 7–13 days): 5.9e-06 mg/g | concentration of SDZ in the water, depletion phase ([1]; elimination 7–13 days): 0.025 ng/mL | concentration of SDZ in excreta after the bioaccumulation period ([1]; end of exposure phase, abstract): 363.5 ng/g | concentration of SDZ in excreta (sediment), exposure phase (Bioaccumulation) ([1]; exposure 1–7 days): 0.00036 mg/g | concentration of SDZ in the water, end of exposure phase (Bioaccumulation) ([1]; exposure 1–7 days): 4.6 ng/mL | bioconcentration factor (BCF) ([1]; lambari, BCF=Ca/Cw): 20 L/kg | SDZ applied in the diet bioaccumulated in the fish (mass balance) ([1]; mass balance): 0.21% | SDZ applied in the diet remaining in the excreta (mass balance) ([1]; mass balance): 0.69% | SDZ applied in the diet remaining in the water (mass balance) ([1]; mass balance): 115% | Log P [2]: −0.09 | BCF [3]: 4100 L/kg | concentration of SDZ in the organisms on the seventh day of depletion [3]: 1.0 × 10^−4 mg·g ^−1 | highest accumulation of SDZ in the organisms ([3]; day 4, SDZ fed in the diet 0.0330 μg·mg^−1): 5.10 × 10 ^−4 mg·g^−1 | bioaccumulated amount of SDZ (Danio rerio): 4.15 Bq and 5.41 Bq | eliminated amount of SDZ (Danio rerio): 3.79 Bq and 5.21 Bq | BCF [4]: 2.1 to 891.5 L/kg | BCF [5]: 2.73 to 165.73 L/kg
